Experimental data published in patent US20220071932A1, “Compositions and Methods Against Stress-Induced Affective Disorders and Their Associated Symptoms” (The Trustees of Columbia University in the City of New York, priority 2019, published 2022).

How the values were obtained:
[1] = test system: 129S6/SvEv mice; test: Open field (OF); type: in vivo
Description: The OF assay was administered as previously described (47). Briefly, motor activity was quantified in 4 Plexiglas open field boxes 43×43 cm^2 (MED Associates, Georgia, Vt.). Two sets of 16 pulse-modulated infrared photobeams on opposite walls 2.5-cm apart recorded x-y ambulatory movements. Activity chambers were computer interfaced for data sampling at 100-ms resolution. The computer defined grid lines that dividing center and surround regions, with the center square consisting of four lines 11 cm from the wall.

[2] = test system: 129S6/SvEv mice; test: Contextual fear conditioning (CFC), 3-shock; freezing; type: in vivo; details: for p, Fisher's LSD Saline vs. drug, CFC Re-exposure Freezing Min 1 (%) / p, Fisher's LSD Saline vs. drug, CFC Re-exposure Freezing Min 2 (%) / p, Fisher's LSD Saline vs. drug, CFC Re-exposure Freezing Min 3 (%) / p, Fisher's LSD Saline vs. drug, CFC Re-exposure Freezing Min 4 (%) / p, Fisher's LSD Saline vs. drug, CFC Re-exposure Freezing Min 5 (%) / p, Fisher's LSD Saline vs. drug, CFC Re-exposure Freezing (%): drug 1 week before stress
Description: A 3-shock CFC paradigm was administered as previously described (45, 46). CFC was conducted in chambers obtained from Med Associates (St. Albans, Vt.), with internal dimensions of approximately 20 cm wide×16 cm deep×20.5 cm high. The chambers had metal walls on each side, clear plastic front and back walls and ceilings, and stainless-steel bars on the floor. A house light (CM1820 bulb, 28v, 100 mA) mounted directly above the chamber provided illumination. Each chamber was located inside a larger, insulated, plastic cabinet that provided protection from outside light and noise. Each cabinet contained a ventilation fan that was operated during the sessions. A paper towel dabbed with lemon solution was placed underneath the chamber floor. Mice were held outside the experimental room in their home cages prior to testing and transported to the conditioning apparatus individually in standard mouse cages Chambers were cleaned with 70% EtOH between each set of mice. Mice were placed into the conditioning chamber and received shocks at 180 s, 240 s, and 300 s (2 s duration, 0.75 mA). Fifteen seconds after the last shock, mice were removed from the chamber. Overall, the training session lasted 317 s. […] All sessions were scored for freezing using FreezeFrame4.

[3] = 1 week prior to CFC, (R,S)-ketamine 30 mg/kg, FENM 10, 20 or 30 mg/kg, vs saline
[4] = 5 min prior to CFC, (R,S)-ketamine 30 mg/kg, FENM 20 mg/kg, vs saline
[5] = Fisher's PLSD, drug 5 minutes after stress, (R,S)-ketamine 30 mg/kg vs. FENM 20 mg/kg
[6] = Fisher's PLSD, drug 5 minutes after stress, FENM 20 mg/kg, (R,S)-ketamine 30 mg/kg
[7] = Saline vs. FENM (20 mg/kg), cohort 5 min before re-exposure 1, FIG. 9L
[8] = non-stressed mice, FENM 20 mg/kg 1 hour before the start of the OF, vs saline
[9] = 10 mg/kg, drug 5 minutes after stress, FIG. 2C
[10] = 30 mg/kg, drug 5 minutes after stress, FIG. 2C

NC12CC3CC(C1)CC(CCF)(C3)C2 [FENM, 1-amino-3-fluoroethyl-adamantane]
distance travelled in the OF [1, 3]: did not alter | time spent in the center of the OF arena [1, 3]: did not alter | time spent in the center of the OF ([1]; 5 min after context re-exposure 1, FENM 20 mg/kg, vs saline): significantly increased | distance travelled in the OF [1, 4]: did not alter | time spent in the center of the OF arena [1, 4]: did not alter | Open Field, Distance Travelled Min 1 (cm), p (Fisher's LSD) ([1]; (R,S)-ketamine (30 mg/kg) vs. FENM (20 mg/kg), cohort 5 min before re-exposure 1, FIG. 9L): 0.0129 | p, Distance Travelled (cm), OF, (R,S)-ketamine vs. FENM ([1]; Fisher's PLSD after RMANOVA, drug 5 minutes after stress, (R,S)-ketamine 30 mg/kg vs. FENM 20 mg/kg, FIG. 3L): 0.8632 | p, Distance Travelled (cm), OF, Saline vs. drug ([1]; Fisher's PLSD after RMANOVA, drug 5 minutes after stress, FENM 20 mg/kg, (R,S)-ketamine 30 mg/kg, FIG. 3L): 0.7967 | p, Distance Travelled Min 1 (cm), OF, (R,S)-ketamine vs. FENM [1, 5]: 0.5911 | p, Distance Travelled Min 2 (cm), OF, (R,S)-ketamine vs. FENM [1, 5]: 0.8997 | p, Distance Travelled Min 3 (cm), OF, (R,S)-ketamine vs. FENM [1, 5]: 0.5565 | p, Distance Travelled Min 4 (cm), OF, (R,S)-ketamine vs. FENM [1, 5]: 0.7043 | p, Distance Travelled Min 5 (cm), OF, (R,S)-ketamine vs. FENM [1, 5]: 0.5847 | p, Distance Travelled Min 6 (cm), OF, (R,S)-ketamine vs. FENM [1, 5]: 0.7385 | p, Distance Travelled Min 7 (cm), OF, (R,S)-ketamine vs. FENM [1, 5]: 0.4416 | p, Distance Travelled Min 8 (cm), OF, (R,S)-ketamine vs. FENM [1, 5]: 0.7658 | p, Distance Travelled Min 9 (cm), OF, (R,S)-ketamine vs. FENM [1, 5]: 0.8899 | p, Distance Travelled Min 10 (cm), OF, (R,S)-ketamine vs. FENM [1, 5]: 0.9456 | p, Distance Travelled Min 1 (cm), OF, Saline vs. drug [1, 6]: 0.0158 | p, Distance Travelled Min 2 (cm), OF, Saline vs. drug [1, 6]: 0.0068 | p, Distance Travelled Min 3 (cm), OF, Saline vs. drug [1, 6]: 0.4093 | p, Distance Travelled Min 4 (cm), OF, Saline vs. drug [1, 6]: 0.4054 | p, Distance Travelled Min 5 (cm), OF, Saline vs. drug [1, 6]: 0.1372 | p, Distance Travelled Min 6 (cm), OF, Saline vs. drug [1, 6]: 0.5067 | p, Distance Travelled Min 7 (cm), OF, Saline vs. drug [1, 6]: 0.4644 | p, Distance Travelled Min 8 (cm), OF, Saline vs. drug [1, 6]: 0.0809 | p, Distance Travelled Min 9 (cm), OF, Saline vs. drug [1, 6]: 0.0040 | p, Distance Travelled Min 10 (cm), OF, Saline vs. drug [1, 6]: 0.5094 | Open Field, Distance Travelled Min 1 (cm), p (Fisher's LSD) [1, 7]: 0.1253 | Open Field, Distance Travelled Min 2 (cm), p (Fisher's LSD) [1, 7]: 0.0385 | distance travelled in the OF [1, 8]: comparable | time in the center of the OF [1, 8]: comparable | time in the periphery of the OF [1, 8]: comparable | p, Distance Travelled (cm), OF, Saline vs. FENM ([1]; t-test, Baseline, anxiety cohort, FENM 20 mg/kg, FIG. 7C): 0.1878 | p, Time in Center (sec), OF, Saline vs. FENM ([1]; t-test, Baseline, anxiety cohort, FENM 20 mg/kg, FIG. 7D): 0.1241 | p, Time in Periphery (sec), OF, Saline vs. FENM ([1]; t-test, Baseline, anxiety cohort, FENM 20 mg/kg, FIG. 7E): 0.1225 | p, Fisher's LSD Saline vs. drug, CFC Re-exposure Freezing Min 1 (%) ([2]; 10 mg/kg, FIG. 1C): 0.4040 | p, Fisher's LSD Saline vs. drug, CFC Re-exposure Freezing Min 2 (%) ([2]; 10 mg/kg, FIG. 1C): 0.0961 | p, Fisher's LSD Saline vs. drug, CFC Re-exposure Freezing Min 3 (%) ([2]; 10 mg/kg, FIG. 1C): 0.5544 | p, Fisher's LSD Saline vs. drug, CFC Re-exposure Freezing Min 4 (%) ([2]; 10 mg/kg, FIG. 1C): 0.0419 | p, Fisher's LSD Saline vs. drug, CFC Re-exposure Freezing Min 5 (%) ([2]; 10 mg/kg, FIG. 1C): 0.3855 | p, Fisher's LSD Saline vs. drug, CFC Re-exposure Freezing (%) ([2]; 10 mg/kg, after ANOVA, FIG. 1D): 0.1313 | p, Fisher's LSD Saline vs. drug, CFC Re-exposure Freezing (%) ([2]; 10 mg/kg, after RMANOVA, FIG. 1C): 0.1313 | p, Fisher's PLSD Saline vs. drug, CFC Re-exposure Freezing Min 1 (%) [2, 9]: 0.1019 | p, Fisher's PLSD Saline vs. drug, CFC Re-exposure Freezing Min 2 (%) [2, 9]: 0.0359 | p, Fisher's PLSD Saline vs. drug, CFC Re-exposure Freezing Min 3 (%) [2, 9]: 0.0300 | p, Fisher's PLSD Saline vs. drug, CFC Re-exposure Freezing Min 4 (%) [2, 9]: 0.1916 | p, Fisher's PLSD Saline vs. drug, CFC Re-exposure Freezing Min 5 (%) [2, 9]: 0.6909 | p, Fisher's PLSD Saline vs. drug, CFC Re-exposure Freezing (%) ([2]; 10 mg/kg, drug 5 minutes after stress, after RMANOVA, FIG. 2C): 0.0570 | p, Fisher's LSD Saline vs. drug, CFC Re-exposure Freezing Min 1 (%) ([2]; 20 mg/kg, FIG. 1C): 0.2929 | p, Fisher's LSD Saline vs. drug, CFC Re-exposure Freezing Min 2 (%) ([2]; 20 mg/kg, FIG. 1C): 0.0225 | p, Fisher's LSD Saline vs. drug, CFC Re-exposure Freezing Min 3 (%) ([2]; 20 mg/kg, FIG. 1C): 0.0834 | p, Fisher's LSD Saline vs. drug, CFC Re-exposure Freezing Min 4 (%) ([2]; 20 mg/kg, FIG. 1C): 0.0743 | p, Fisher's LSD Saline vs. drug, CFC Re-exposure Freezing Min 5 (%) ([2]; 20 mg/kg, FIG. 1C): 0.0027 | p, Fisher's LSD Saline vs. drug, CFC Re-exposure Freezing (%) ([2]; 20 mg/kg, after ANOVA, FIG. 1D): 0.015 | p, Fisher's LSD Saline vs. drug, CFC Re-exposure Freezing (%) ([2]; 20 mg/kg, after RMANOVA, FIG. 1C): 0.0150 | p, Fisher's LSD Saline vs. drug, CFC Re-exposure Freezing Min 1 (%) ([2]; 30 mg/kg, FIG. 1C): 0.0328 | p, Fisher's LSD Saline vs. drug, CFC Re-exposure Freezing Min 2 (%) ([2]; 30 mg/kg, FIG. 1C): 0.0080 | p, Fisher's LSD Saline vs. drug, CFC Re-exposure Freezing Min 3 (%) ([2]; 30 mg/kg, FIG. 1C): 0.0038 | p, Fisher's LSD Saline vs. drug, CFC Re-exposure Freezing Min 4 (%) ([2]; 30 mg/kg, FIG. 1C): 0.0005 | p, Fisher's LSD Saline vs. drug, CFC Re-exposure Freezing Min 5 (%) ([2]; 30 mg/kg, FIG. 1C): 0.0807 | p, Fisher's LSD Saline vs. drug, CFC Re-exposure Freezing (%) ([2]; 30 mg/kg, after ANOVA, FIG. 1D): 0.0018 | p, Fisher's LSD Saline vs. drug, CFC Re-exposure Freezing (%) ([2]; 30 mg/kg, after RMANOVA, FIG. 1C): 0.0018 | p, Fisher's PLSD Saline vs. drug, CFC Re-exposure Freezing Min 1 (%) [2, 10]: 0.8647 | p, Fisher's PLSD Saline vs. drug, CFC Re-exposure Freezing Min 2 (%) [2, 10]: 0.4119
